Active and inactive are the calls of the source. Where only a bound is given, the exact number is not on record here.

In ChEMBL document CHEMBL1201862, “PubChem BioAssay data set” (2004) one finds EC50 and IC50 data, which are given here for 15 molecules.

Assay [1] concerns the target Peroxisome proliferator-activated receptor gamma/Nuclear receptor coactivator 1 (Homo sapiens, UniProt P37231). The class given is functional.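 Also: agonist potency as compounds enhance coactivator SRC-1 recruitment to PPARgamma.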
Assay [2] has as its target Peroxisome proliferator-activated receptor gamma/Nuclear receptor coactivator 3 (Homo sapiens, UniProt P37231). It counts as functional.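 Also: agonist potency for raising coactivator recruitment to the receptor.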
Assay [3] addresses Peroxisome proliferator-activated receptor gamma/Nuclear receptor coactivator 2 (Homo sapiens, UniProt P37231). It counts as functional.
In assay [4] the target is T1, Mannose-6-phosphate isomerase (Homo sapiens, UniProt P34949).
T1 sequence (P34949 whole entry): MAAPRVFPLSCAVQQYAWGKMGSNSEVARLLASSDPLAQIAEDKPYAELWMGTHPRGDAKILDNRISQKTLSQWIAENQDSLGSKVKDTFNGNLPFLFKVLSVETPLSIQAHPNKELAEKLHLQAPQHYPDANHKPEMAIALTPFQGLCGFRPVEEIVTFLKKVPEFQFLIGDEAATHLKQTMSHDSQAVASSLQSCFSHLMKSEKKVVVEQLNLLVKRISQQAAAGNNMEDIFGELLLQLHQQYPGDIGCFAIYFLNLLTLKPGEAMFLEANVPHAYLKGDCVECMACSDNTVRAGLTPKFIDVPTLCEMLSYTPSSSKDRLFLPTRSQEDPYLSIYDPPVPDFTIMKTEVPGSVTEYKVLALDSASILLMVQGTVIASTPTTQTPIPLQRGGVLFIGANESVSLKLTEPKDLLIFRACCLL
Description: inhibitors of human PMI, primary screen, biochemical, fluorescence intensity, coupled assay (AID 1209).

Assay [5] has as its target T1, Mannose-6-phosphate isomerase. Description: human PMI inhibitors, high substrate, primary screen, biochemical, fluorescence intensity, high mannose 6-phosphate (AID 1220).
Assay [6] has as its target Glyceraldehyde-3-phosphate dehydrogenase (Homo sapiens, UniProt P04406).
Assay [7] addresses T2, Alkaline phosphatase, tissue-nonspecific isozyme (Homo sapiens, UniProt P05186).
T2 sequence (P05186 whole entry): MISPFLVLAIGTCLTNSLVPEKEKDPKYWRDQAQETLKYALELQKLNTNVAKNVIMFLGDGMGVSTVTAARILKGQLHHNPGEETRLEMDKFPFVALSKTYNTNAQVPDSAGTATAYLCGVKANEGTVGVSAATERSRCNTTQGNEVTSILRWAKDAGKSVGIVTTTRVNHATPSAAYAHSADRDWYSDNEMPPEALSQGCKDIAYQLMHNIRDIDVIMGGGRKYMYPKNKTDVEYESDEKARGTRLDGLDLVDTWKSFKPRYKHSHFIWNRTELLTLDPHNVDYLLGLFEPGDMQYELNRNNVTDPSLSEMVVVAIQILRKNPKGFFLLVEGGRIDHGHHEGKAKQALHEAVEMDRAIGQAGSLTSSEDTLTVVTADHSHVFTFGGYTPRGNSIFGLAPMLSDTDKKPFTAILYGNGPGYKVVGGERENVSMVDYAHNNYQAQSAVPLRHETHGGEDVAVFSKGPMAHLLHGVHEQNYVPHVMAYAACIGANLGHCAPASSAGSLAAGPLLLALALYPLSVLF
Description: human TNAP enzyme inhibitors, SAR follow-up, biochemical, luminescent, dose response (AID 1056).

For assay [8], the target named is T3, Beta-galactosidase (Escherichia coli, UniProt Q8VNN2). Description: beta-galactosidase enzyme inhibitors and activators, dose response, artefact control for CCR6 antagonist project, biochemical, E. coli enzyme, set 3 (AID 504712). It counts as functional.
In assay [9] the target is T4, Heat shock factor protein 1 (Mus musculus, UniProt P38532).
T4 sequence (P38532 whole entry): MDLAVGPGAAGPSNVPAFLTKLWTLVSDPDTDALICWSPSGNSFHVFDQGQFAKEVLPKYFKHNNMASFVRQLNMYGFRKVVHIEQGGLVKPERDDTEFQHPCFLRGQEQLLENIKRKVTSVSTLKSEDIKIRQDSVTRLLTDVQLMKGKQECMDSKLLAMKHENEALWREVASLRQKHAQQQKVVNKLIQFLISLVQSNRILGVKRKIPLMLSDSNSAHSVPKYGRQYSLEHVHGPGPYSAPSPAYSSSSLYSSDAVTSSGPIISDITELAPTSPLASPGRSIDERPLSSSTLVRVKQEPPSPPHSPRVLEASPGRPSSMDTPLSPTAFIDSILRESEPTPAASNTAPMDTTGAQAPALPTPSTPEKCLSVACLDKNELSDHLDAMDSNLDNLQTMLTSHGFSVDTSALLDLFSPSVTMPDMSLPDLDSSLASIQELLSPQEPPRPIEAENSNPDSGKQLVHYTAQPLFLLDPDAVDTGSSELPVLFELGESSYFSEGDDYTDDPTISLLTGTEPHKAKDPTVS
Description: inhibition of MG132-induced HSE-luciferase signal, confirmation, cell-based, NIH3T3, luminescence, dose retest (AID 2382).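 Also: NIH3T3 fibroblasts with HSF1-driven luciferase reporter stressed by proteasome inhibitor MG132; luminescence from HSF1-driven luciferase expression after 8 hours of MG132 stress.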 It counts as functional.

Another assay addresses T5, Insulin-degrading enzyme (Homo sapiens, UniProt P14735).
T5 sequence (P14735 whole entry): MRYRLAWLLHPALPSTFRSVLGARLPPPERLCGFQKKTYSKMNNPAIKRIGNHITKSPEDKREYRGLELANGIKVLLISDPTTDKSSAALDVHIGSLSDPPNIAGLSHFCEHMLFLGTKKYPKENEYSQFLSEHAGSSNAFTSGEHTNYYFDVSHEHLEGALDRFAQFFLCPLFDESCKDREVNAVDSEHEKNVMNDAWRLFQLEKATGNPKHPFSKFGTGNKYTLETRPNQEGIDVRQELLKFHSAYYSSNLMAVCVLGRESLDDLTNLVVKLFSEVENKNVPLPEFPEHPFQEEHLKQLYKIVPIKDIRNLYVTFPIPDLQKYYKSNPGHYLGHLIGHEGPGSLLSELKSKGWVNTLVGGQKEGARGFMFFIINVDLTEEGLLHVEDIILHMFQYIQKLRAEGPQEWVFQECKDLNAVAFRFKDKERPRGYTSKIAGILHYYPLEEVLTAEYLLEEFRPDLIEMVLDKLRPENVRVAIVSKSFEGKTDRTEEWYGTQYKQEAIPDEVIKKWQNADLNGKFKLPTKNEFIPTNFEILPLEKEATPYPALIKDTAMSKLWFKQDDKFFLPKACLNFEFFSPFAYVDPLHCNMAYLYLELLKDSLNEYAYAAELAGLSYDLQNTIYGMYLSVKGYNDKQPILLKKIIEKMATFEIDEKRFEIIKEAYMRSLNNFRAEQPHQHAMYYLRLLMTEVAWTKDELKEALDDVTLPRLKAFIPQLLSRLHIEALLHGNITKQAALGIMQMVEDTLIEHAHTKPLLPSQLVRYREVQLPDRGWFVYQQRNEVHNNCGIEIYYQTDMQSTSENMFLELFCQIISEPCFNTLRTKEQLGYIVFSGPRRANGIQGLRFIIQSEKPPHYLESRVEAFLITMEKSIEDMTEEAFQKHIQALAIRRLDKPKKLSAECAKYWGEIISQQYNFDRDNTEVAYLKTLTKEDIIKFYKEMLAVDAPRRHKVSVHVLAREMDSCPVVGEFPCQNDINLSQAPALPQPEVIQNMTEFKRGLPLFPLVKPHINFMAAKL
Description: Dose Response: Fluorescence polarization-based cell-based high throughput dose response assay for inhibitors of insulin-degrading enzyme (IDE). [Related pubchem assays: 434962 (Primary screen (IDE inhibitors in singlicate)), 449730 (Counterscreen (Cytotoxicity in triplicate)), 435028 (Confirmation (IDE inhibitors in triplicate)), 434984 (Summary …. The class given is functional.

Assay [10] is described as follows: Counterscreen for IDE inhibitors: Luminescence-based cell-based high throughput dose response assay to identify compounds that are cytotoxic to HEK cells. [Related pubchem assays: 434962 (Primary screen (IDE inhibitors in singlicate)), 449730 (Counterscreen (Cytotoxicity in triplicate)), 435028 (Confirmation (IDE inhibitors in triplicate)) …. The class given is functional. The settings on record: HEK293.

The target of assay [11] is T3, Beta-galactosidase. It counts as functional.
Assay [12] addresses T6, Kappa-type opioid receptor (Homo sapiens, UniProt P41145). It counts as functional.
In assay [13] the target is T6, Kappa-type opioid receptor. The class given is functional. This is another data set of the same source.
Assay [14] has as its target Alkaline phosphatase, placental type (Homo sapiens, UniProt P05187). Description: PLAP enzyme inhibitors, confirmation, biochemical, luminescence (AID 1512). The class given is functional.
The target of assay [15] is G-protein coupled receptor 55 (Homo sapiens, UniProt Q9Y2T6). As to the kind of experiment: GPR55 agonists via beta-arrestin recruitment, primary screen, imaging, U2OS cells, beta-arrestin-GFP redistribution (AID 1961). The class given is functional. A general note: Activated receptors often draw arrestin, which recruitment assays turn into a signal.
G-protein coupled receptor 55, sequence (Q9Y2T6 whole entry): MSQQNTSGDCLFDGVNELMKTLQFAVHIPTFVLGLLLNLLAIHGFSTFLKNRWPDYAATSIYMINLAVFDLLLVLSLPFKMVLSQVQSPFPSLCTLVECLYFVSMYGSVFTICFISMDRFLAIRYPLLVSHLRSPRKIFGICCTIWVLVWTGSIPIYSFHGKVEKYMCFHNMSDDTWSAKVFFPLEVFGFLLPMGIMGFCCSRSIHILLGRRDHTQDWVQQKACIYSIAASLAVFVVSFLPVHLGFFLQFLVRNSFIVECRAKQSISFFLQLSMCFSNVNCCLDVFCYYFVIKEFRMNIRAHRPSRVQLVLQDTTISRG
In the next assay the target is Tumor necrosis factor (Homo sapiens, UniProt P01375). As to the kind of experiment: TNFa-triggered NF-kB activation inhibitors, SAR follow-up, cell-based, revised (AID 2337). The class given is functional.
Tumor necrosis factor, sequence (P01375 whole entry, the tested form may be a part): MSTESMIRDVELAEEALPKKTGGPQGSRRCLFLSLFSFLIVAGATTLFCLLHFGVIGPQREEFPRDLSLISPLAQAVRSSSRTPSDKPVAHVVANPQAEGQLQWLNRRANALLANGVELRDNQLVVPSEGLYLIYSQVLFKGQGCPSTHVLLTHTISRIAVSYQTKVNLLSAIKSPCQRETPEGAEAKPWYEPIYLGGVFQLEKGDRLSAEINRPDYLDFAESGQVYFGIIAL
For assay [16], the target named is T7, Nucleotide-binding oligomerization domain-containing protein 1 (Homo sapiens, UniProt Q9Y239).
T7 sequence (Q9Y239 whole entry): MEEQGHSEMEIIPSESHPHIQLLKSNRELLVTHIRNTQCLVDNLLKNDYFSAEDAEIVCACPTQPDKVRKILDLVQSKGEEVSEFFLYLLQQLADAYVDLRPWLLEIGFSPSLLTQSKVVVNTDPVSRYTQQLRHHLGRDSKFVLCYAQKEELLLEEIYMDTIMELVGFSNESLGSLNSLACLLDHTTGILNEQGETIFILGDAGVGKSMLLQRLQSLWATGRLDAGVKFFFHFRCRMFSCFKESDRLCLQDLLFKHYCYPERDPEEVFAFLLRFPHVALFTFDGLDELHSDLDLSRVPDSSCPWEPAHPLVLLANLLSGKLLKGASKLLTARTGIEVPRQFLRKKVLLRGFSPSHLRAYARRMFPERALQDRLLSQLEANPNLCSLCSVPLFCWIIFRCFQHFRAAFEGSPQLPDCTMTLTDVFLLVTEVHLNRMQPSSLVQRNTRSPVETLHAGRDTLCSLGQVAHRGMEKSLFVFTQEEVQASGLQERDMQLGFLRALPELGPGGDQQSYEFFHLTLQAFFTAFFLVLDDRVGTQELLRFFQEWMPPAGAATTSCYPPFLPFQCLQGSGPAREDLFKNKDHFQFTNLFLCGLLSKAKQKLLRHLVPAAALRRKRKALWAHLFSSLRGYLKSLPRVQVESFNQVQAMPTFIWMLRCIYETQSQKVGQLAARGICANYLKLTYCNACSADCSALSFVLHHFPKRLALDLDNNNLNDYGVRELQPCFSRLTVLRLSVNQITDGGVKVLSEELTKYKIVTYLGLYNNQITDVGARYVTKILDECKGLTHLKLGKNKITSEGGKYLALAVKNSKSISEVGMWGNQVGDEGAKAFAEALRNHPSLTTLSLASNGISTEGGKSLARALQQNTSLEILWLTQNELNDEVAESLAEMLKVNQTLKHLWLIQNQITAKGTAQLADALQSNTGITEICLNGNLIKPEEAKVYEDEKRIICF
Description: NOD1 signaling inhibitors, SAR follow-up, revised (AID 2333). It counts as functional.

The target of assay [17] is Nucleotide-binding oligomerization domain-containing protein 2 (Homo sapiens, UniProt Q9HC29). As to the kind of experiment: PubChem AID 2334. The class given is functional.
Nucleotide-binding oligomerization domain-containing protein 2, sequence (Q9HC29 whole entry, the tested form may be a part): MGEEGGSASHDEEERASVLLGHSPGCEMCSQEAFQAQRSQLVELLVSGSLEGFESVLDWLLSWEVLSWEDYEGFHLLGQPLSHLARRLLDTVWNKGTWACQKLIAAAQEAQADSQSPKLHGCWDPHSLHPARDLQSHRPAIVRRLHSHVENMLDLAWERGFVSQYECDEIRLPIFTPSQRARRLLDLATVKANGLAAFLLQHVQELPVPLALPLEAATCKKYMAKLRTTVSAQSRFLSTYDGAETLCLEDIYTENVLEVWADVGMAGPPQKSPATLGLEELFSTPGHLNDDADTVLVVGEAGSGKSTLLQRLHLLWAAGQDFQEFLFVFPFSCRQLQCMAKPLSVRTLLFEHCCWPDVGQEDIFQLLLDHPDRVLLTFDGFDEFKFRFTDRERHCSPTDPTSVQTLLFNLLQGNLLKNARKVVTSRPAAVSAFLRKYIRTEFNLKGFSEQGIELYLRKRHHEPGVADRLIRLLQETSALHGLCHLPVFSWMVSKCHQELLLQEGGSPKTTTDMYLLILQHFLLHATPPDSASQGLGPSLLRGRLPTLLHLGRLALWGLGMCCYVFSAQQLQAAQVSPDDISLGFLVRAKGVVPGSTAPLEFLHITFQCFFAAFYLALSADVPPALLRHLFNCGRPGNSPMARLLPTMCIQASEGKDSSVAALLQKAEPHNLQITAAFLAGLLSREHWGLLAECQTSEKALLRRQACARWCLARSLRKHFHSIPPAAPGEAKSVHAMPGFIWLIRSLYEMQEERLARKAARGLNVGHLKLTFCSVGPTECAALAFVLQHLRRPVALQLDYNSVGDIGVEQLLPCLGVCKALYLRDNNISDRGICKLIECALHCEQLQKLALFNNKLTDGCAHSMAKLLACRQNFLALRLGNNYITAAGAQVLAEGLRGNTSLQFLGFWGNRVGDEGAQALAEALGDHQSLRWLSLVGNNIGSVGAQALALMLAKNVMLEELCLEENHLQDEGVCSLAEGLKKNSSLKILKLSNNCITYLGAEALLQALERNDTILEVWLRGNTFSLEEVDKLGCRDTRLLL
A further assay has as its system HEK293. Description: cells. The settings on record: Homo sapiens.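 Also: cells exposed to compound for 14 hours overnight before viability readout.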

Peroxisome proliferator-activated receptor gamma/Nuclear receptor coactivator 3, sequence (P37231 whole entry): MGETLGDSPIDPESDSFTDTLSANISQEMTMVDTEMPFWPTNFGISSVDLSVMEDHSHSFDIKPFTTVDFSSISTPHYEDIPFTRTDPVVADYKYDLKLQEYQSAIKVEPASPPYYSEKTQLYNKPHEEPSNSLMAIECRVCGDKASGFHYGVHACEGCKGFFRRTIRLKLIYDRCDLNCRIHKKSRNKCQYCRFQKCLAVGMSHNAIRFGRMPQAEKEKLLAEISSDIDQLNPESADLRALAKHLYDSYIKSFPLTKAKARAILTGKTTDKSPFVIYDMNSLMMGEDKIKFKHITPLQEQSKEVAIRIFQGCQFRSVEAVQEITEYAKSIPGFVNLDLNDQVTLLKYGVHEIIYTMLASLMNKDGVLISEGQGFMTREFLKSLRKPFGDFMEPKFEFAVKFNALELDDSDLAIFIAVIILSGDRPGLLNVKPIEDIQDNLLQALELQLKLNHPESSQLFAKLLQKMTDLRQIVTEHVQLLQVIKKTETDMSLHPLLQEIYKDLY
Peroxisome proliferator-activated receptor gamma/Nuclear receptor coactivator 3, sequence (Q9Y6Q9 whole entry, further chain): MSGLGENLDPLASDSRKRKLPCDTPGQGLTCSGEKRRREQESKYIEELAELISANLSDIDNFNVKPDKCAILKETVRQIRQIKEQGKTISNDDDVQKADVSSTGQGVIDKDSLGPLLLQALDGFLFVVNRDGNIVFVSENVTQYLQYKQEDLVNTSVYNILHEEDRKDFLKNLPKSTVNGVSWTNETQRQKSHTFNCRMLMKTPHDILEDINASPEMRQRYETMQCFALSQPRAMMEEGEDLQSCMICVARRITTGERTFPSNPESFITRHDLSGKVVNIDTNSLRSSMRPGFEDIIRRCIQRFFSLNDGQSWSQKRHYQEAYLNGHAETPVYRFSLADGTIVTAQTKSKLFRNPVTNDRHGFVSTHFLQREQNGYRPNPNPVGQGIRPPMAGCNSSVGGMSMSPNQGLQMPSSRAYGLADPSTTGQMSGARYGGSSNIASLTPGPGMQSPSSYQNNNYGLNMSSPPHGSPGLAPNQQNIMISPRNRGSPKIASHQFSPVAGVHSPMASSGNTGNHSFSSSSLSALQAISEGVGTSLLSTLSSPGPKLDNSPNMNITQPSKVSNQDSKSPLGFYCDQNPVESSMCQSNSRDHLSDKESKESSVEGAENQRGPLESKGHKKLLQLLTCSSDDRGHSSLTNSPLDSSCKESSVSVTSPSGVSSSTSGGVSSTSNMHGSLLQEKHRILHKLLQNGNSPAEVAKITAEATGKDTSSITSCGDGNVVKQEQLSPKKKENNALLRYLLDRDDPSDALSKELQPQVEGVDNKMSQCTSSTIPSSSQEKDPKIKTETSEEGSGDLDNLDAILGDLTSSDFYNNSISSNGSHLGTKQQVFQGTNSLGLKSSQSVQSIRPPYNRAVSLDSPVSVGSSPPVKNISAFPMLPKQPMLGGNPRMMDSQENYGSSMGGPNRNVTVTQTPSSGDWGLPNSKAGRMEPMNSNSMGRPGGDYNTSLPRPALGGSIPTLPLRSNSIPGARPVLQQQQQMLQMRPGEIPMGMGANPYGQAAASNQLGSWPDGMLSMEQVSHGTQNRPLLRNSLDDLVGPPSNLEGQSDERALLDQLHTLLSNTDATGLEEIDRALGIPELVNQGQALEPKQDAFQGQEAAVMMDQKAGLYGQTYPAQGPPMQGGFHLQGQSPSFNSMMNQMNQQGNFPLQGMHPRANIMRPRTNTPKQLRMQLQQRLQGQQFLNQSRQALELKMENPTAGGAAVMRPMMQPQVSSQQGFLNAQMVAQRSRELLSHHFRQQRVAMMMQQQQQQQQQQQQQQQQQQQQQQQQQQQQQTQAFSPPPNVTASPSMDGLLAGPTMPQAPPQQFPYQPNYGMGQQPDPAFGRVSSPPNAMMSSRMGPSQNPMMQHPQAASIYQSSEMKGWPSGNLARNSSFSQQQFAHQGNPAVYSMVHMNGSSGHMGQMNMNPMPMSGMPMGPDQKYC
Glyceraldehyde-3-phosphate dehydrogenase, sequence (P04406 whole entry): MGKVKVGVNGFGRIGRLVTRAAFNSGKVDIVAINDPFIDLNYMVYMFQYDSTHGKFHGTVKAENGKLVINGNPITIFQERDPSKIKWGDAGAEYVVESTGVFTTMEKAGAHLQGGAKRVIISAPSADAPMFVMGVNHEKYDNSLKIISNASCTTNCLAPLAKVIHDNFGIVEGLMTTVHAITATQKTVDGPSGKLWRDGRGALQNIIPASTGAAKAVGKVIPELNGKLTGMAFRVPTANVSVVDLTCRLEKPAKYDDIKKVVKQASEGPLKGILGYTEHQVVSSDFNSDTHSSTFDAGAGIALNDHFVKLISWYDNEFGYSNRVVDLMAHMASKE
T6 sequence (P41145 whole entry): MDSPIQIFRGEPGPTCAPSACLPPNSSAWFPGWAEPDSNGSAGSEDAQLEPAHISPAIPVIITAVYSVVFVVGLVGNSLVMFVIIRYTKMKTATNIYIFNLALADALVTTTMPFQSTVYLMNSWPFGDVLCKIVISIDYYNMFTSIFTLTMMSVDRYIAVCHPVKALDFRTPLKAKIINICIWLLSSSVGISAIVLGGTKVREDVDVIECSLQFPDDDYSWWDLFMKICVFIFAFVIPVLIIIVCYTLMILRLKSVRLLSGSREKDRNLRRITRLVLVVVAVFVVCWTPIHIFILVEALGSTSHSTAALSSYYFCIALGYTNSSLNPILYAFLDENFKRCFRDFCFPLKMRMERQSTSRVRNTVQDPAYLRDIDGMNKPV
Alkaline phosphatase, placental type, sequence (P05187 whole entry): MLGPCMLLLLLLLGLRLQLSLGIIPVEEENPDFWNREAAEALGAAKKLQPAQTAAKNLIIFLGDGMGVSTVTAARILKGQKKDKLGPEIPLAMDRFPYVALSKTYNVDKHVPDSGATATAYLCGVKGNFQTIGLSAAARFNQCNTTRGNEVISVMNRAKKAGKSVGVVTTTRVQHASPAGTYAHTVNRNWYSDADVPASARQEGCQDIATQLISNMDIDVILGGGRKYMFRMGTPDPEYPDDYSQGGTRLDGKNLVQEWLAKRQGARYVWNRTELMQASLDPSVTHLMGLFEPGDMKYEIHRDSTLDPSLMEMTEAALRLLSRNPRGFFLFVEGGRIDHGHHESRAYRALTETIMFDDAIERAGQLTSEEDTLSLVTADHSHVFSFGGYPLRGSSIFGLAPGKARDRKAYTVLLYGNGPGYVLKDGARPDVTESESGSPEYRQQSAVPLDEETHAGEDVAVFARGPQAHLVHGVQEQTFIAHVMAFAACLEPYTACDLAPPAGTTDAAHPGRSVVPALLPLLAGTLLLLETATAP

Turning to `O=S(=O)(c1ccccc1)c1nc(-c2ccco2)oc1N1CCOCC1`, the EC50 (in general, the midpoint of the concentration-response curve) is 85.1 µM (not active) in [1], > 79.4 µM (not active) in [2] and > 79.4 µM (not active) in assay [3].

In the case of `CN1C(=O)N(C)C(=O)C2(Cc3c(ccc4ccccc34)N(C)C2)C1=O`, the IC50 in assay [4] and in assay [5] was > 50 µM (not active) in each case.

Regarding `O=C(Nc1ccc([N+](=O)[O-])cc1)/C(=C/c1cccc([N+](=O)[O-])c1)NC(=O)C1CCCCC1`, the EC50 in [1], in assay [2] and in assay [3] was > 79.4 µM (not active) throughout.

`Cc1cc(C)c(S(=O)(=O)Nc2cnc3ccccc3c2)c(C)c1`: the IC50 (in general, the concentration needed to halve the response being measured) in assay [6] was > 100 µM (not active); in assay [7] it was > 100 µM (inactive).

Regarding `O=C(Cc1ccccc1)Nc1cccc(N2C(=O)C=CC2=O)c1`, the IC50 on Beta-galactosidase [8] is > 66.6 µM (inactive). The EC50 in [9] was 19 µM (active).

Consider `O=C(c1ccco1)N1CCN(c2ccnc3cc(Cl)ccc23)CC1`, for which the IC50 on Insulin-degrading enzyme is listed as > 18.6 µM (not active); in assay [10], 18.2 µM (not active).

Consider `O=C1/C(=C\c2ccc(O)cc2)SC(=S)N1c1cccnc1`, for which the EC50 on Beta-galactosidase [11] is 14.6 µM (active). Further, the IC50 is more than 32 µM in [12] and 11.4 µM (active) in assay [13].

For the molecule `O=C(c1cc(-c2cc(F)c(Cl)cc2Cl)n[nH]1)N1CCOCC1`, the values for the IC50 in assay [6], in assay [14] and in [7] were > 100 µM (not active), > 100 µM (inactive) and 3.37 µM (active), respectively.

Turning to `COc1ccccc1Cn1c(SCC(=O)C(C)(C)C)nc2cc(C(=O)N3CCC4(CC3)OCCO4)ccc2c1=O`, the EC50 in [15] was 4.58 µM (active).

`CN1/C(=C\C(=O)COC(=O)c2ccccc2O)C(C)(C)c2ccccc21`: the EC50 in assay [15] was 1.67 µM (active).

Turning to `CCOc1ccc(C(=O)NC2CCCc3c2cnn3-c2ccccc2F)cc1` (stereo not drawn), the IC50 at Tumor necrosis factor was > 20 µM (inactive); in assay [16] it was 12.8 µM (active); in assay [17], 18.5 µM (active); in the assay on HEK293, > 20 µM (inactive).

For `COc1ccccc1CNC(=O)c1oc2ccccc2c1C`, the EC50 in [15] is 3.85 µM (active).

On to `CCc1cc(C(=O)NC2CCCc3c2cnn3-c2ccccc2F)no1` (stereo not drawn), for which the IC50 was > 20 µM (inactive) on Tumor necrosis factor, 17.5 µM (active) in assay [16], > 20 µM (inactive) in assay [17] and > 20 µM (inactive) with HEK293.

For the molecule `Cn1nccc1C(=O)N[C@H]1CCCc2c1cnn2-c1ccccc1F`, the IC50 is 0.994 µM (active) at Tumor necrosis factor, 0.781 µM (active) in assay [16], 1.12 µM (active) in [17] and > 20 µM (inactive) in the assay on HEK293.

Take `Cc1occc1C(=O)N/N=C/c1ccc(Br)s1`: the EC50 in assay [1], in [2] and in assay [3] was > 79.4 µM (not active) throughout.
